The test system of one test is RCC4/VHL. Put plainly: XTT IC50 assay, selectivity RCC4 versus RCC4 with VHL-reintroduced. As to conditions: selectivity ratio of XTT IC50 values, RCC4 vs RCC4/VHL. It is filed as cell-based, human. As to the method:
(§1) RCC4 parental and RCC4 with VHL-reintroduced (RCC4/VHL), SN12C and SN12C-CSCG-VHL shRNA were maintained in DMEM supplemented with 10% FCS.
(§2) IC50 values for compounds were determined by XTT assay. For 2,3-bis[2-methoxy-4-nitro-5-sulfophenyl]-2H-tetrazolium-5-carboxanilide inner salt (XTT) assays, five thousand cells were plated in 96-well plates. The next day, vehicle or drug was added to each well and incubated for four days. Media was aspirated and phenol red-free medium with 0.3 mg/mL XTT and 2.65 ug/mL N-methyl dibenzopyrazine methyl sulfate was added. This was incubated at 37° C. for 1-2 hours and absorbance was read at 450 nm. IC50 values for each compound were calculated using linear interpolation.
(§3) For 2,3-bis[2-methoxy-4-nitro-5-sulfophenyl]-2H-tetrazolium-5-carboxanilide (XTT) assays, five thousand cells were plated in 96-well plates. The next day, vehicle (DMSO) or drug was added by serial dilution. Four days later, media were aspirated, XTT solution (0.3 mg/ml of XTT (Sigma), 2.65 mg/ml N-methyl dibenxopyrazine methyl sulfate (Simga) in phenol red-free media) was added, and the plates were incubated at 37° C. for 1-2 hours. Metabolism of XTT was quantified by measuring the absorbance at 450 nm. IC50s were calculated using linear interpolation. For clonogenic survival assays, three hundred cells were plated per 60 mm tissue culture dish. The cells were allowed to attach overnight and then treated with vehicle or drug for 14 days. Colonies were fixed and stained with crystal violet (0.1% crystal violet in 95% ethanol). All conditions were measured in triplicate and each experiment was done in duplicate or triplicate. To determine necrosis, cells were treated with drug for a given time point. Media and cells were collected, centrifugated, and resuspended in 0.4% trypan blue (Invitrogen). Live and dead cells were counted on a hematocytometer.
Background: Tetrazolium assays rely on reduction of a dye to a coloured formazan, in cell work by metabolically active cells.

In a further test the test system is RCC4. Put plainly: XTT IC50 / viability assay, RCC4 cells. Type of test: cell-based, human. As to conditions: Homo sapiens, RCC4, 96 h; XTT assay, four days. As to the method:
as §1, §2, §3

From patent US20120225862A1, “HETEROARYL BENZAMIDES, COMPOSITIONS AND METHODS OF USE” (AUCKLAND UNIVSERVICES LIMITED, priority 2009, published 2012) come the findings set out here.

Consider `O=C(Nc1cccnc1)c1ccc(CNS(=O)(=O)c2ccc(Oc3ccccc3)cc2)cc1` [Example 35, 4-((4-Phenoxyphenylsulfonamido)methyl)-N-(pyridin-3-yl)benzamide], for which, in the test with RCC4/VHL, the “Ratio (RCC4:RCC/VHL)” value was “b (“b” reflects from 10 to 100)”. Besides, the concentration for half-maximal inhibition (IC50) (commonly the concentration needed to halve the response being measured) with RCC4 was in the range of 1000 to 20000 nM. In the same order, the values of `CN(C)CC#Cc1ccc(S(=O)(=O)NCc2ccc(C(=O)Nc3cccnc3)cc2)cc1` [Example 137, 4-{[({4-[3-(Dimethylamino)-1-propynyl]phenyl}sulfonyl)amino]methyl}-N-(3-pyridinyl)benzamide] are “b (“b” reflects from 10 to 100)” and less than 1000 nM.

Turning to `CCCCOc1ccc(S(=O)(=O)NCc2ccc(C(=O)Nc3cccnc3)cc2)cc1` [Example 34, 4-((4-Butoxyphenylsulfonamido)methyl)-N-(pyridin-3-yl)benzamide], in the test with RCC4/VHL, the “Ratio (RCC4:RCC/VHL)” value is given as “b (“b” reflects from 10 to 100)”. This compound showed a concentration for half-maximal inhibition (IC50) with RCC4 of less than 1000 nM.

Take `COc1ccc(S(=O)(=O)NCc2ccc(C(=O)Nc3cccnc3)cc2)cc1` [Example 33, 4-((4-Methoxyphenylsulfonamido)methyl)-N-(pyridin-3-yl)benzamide]: the “Ratio (RCC4:RCC/VHL)” value in the test with RCC4/VHL is listed as “b (“b” reflects from 10 to 100)”. In the test with RCC4, this compound came in with a half-inhibitory concentration (IC50) of 1000 to 20000 nM. In the same order, the values of `O=C(Nc1cccnc1)c1ccc(CNS(=O)(=O)c2cccc(N3CCOCC3)c2)cc1` [Example 126, 4-[({[3-(4-Morpholinyl)phenyl]sulfonyl}amino)methyl]-N-(3-pyridinyl)benzamide] are “b (“b” reflects from 10 to 100)” and 1000 to 20000 nM. The corresponding values for `Cc1c(C)c(C)c(S(=O)(=O)NCc2ccc(C(=O)Nc3cccnc3)cc2)c(C)c1C` [Example 63, 4-((2,3,4,5,6-Pentamethylphenylsulfonamido)methyl)-N-(pyridin-3-yl)benzamide] are “b (“b” reflects from 10 to 100)” and less than 1000 nM. The corresponding values for `O=C(Nc1cccnc1)c1ccc(CNS(=O)(=O)c2ccc(C(F)(F)F)cc2)cc1` [Example 49, N-(Pyridin-3-yl)-4-((4-(trifluoromethyl)phenylsulfonamido)methyl)benzamide] are “a (“a” reflects a ratio of RCC4/RCC-VHL+ ranging from 1 to 10)” and 1000 to 20000 nM.

As to `Cc1cccc(S(=O)(=O)NCc2ccc(C(=O)Nc3cccnc3)cc2)c1` [Example 19, 4-((3-Methylphenylsulfonamido)methyl)-N-(pyridin-3-yl)benzamide], the “Ratio (RCC4:RCC/VHL)” value with RCC4/VHL is “b (“b” reflects from 10 to 100)”. The same compound returned a concentration for half-maximal inhibition (IC50) with RCC4 of less than 1000 nM. In the same order, the values of `O=C(Nc1cccnc1)c1ccc(CNS(=O)(=O)c2ccc(-c3ccc(F)cc3)cc2)cc1` [Example 55, 4-({[(4′-Fluoro[1,1′-biphenyl]-4-yl)sulfonyl]amino}methyl)-N-(3-pyridinyl)benzamide] are “b (“b” reflects from 10 to 100)” and less than 1000 nM. The corresponding values for `O=C(Nc1cccnc1)c1ccc(CNS(=O)(=O)c2ccc(-c3cnco3)cc2)cc1` [Example 60, 4-[({[4-(1,3-Oxazol-5-yl)phenyl]sulfonyl}amino)methyl]-N-(3-pyridinyl)benzamide] are “b (“b” reflects from 10 to 100)” and less than 1000 nM. Regarding `O=C(Nc1cccnc1)c1ccc(CNS(=O)(=O)c2ccc(-c3ncccn3)cc2)cc1` [Example 57, 4-[({[4-(2-Pyrimidinyl)phenyl]sulfonyl}amino)methyl]-N-(3-pyridinyl)-benzamide], in the test with RCC4/VHL, the “Ratio (RCC4:RCC/VHL)” value was “b (“b” reflects from 10 to 100)”. In the test on RCC4, this compound showed a concentration for half-maximal inhibition (IC50) of less than 1000 nM. The corresponding values for `O=C(Nc1cccnc1)c1ccc(CNS(=O)(=O)c2ccc(CN3CCCCCC3)cc2)cc1` [Example 82, 4-[({[4-(1-Azepanylmethyl)phenyl]sulfonyl}amino)methyl]-N-(3-pyridinyl)benzamide] are “c (“c” reflects a ratio of >100)” and less than 1000 nM. In the case of `O=C(Nc1cccnc1)c1ccc(CNS(=O)(=O)c2ccc(-c3ccc(Cl)cc3)cc2)cc1` [Example 56, 4-({[(4′-Chloro[1,1′-biphenyl]-4-yl)sulfonyl]amino}methyl)-N-(3-pyridinyl)benzamide], the “Ratio (RCC4:RCC/VHL)” value in the test on RCC4/VHL is listed as “b (“b” reflects from 10 to 100)”. In the test with RCC4, the concentration for half-maximal inhibition (IC50) was 1000 to 20000 nM. In the same order, the values of `COc1ccc(S(=O)(=O)NCc2ccc(C(=O)Nc3cccnc3)cc2)cc1OC` [Example 61, 4-((3,4-Dimethoxyphenylsulfonamido)methyl)-N-(pyridin-3-yl)benzamide] are “c (“c” reflects a ratio of >100)” and less than 1000 nM. In the same order, the values of `O=C(Nc1cccnc1)c1ccc(CNS(=O)(=O)c2cccc(C(F)(F)F)c2)cc1` [Example 23, N-(Pyridin-3-yl)-4-((3-(trifluoromethyl)phenylsulfonamido)methyl)benzamide] are “b (“b” reflects from 10 to 100)” and less than 1000 nM. As for `O=C(Nc1ccccn1)c1ccc(CNS(=O)(=O)c2ccccc2)cc1` [Example 1, 4-(Phenylsulfonamidomethyl)-N-(pyridin-2-yl)benzamide], the half-maximal inhibitory concentration (IC50) in the test on RCC4 is more than 20000 nM. With `Nc1cccc(S(=O)(=O)NCc2ccc(C(=O)Nc3cccnc3)cc2)c1` [Example 17, 4-((3-Aminophenylsulfonamido)methyl)-N-(pyridin-3-yl)benzamide], in the test with RCC4/VHL, the “Ratio (RCC4:RCC/VHL)” value is recorded as “b (“b” reflects from 10 to 100)”. The IC50 in the test on RCC4 was 1000 to 20000 nM. In the same order, the values of `O=C(Nc1cccnc1)c1ccc(CNS(=O)(=O)c2ccc(CN3CCOCC3)cc2)cc1` [Example 83, 4-[({[4-(4-Morpholinylmethyl)phenyl]sulfonyl}amino)methyl]-N-(3-pyridinyl)benzamide] are “c (“c” reflects a ratio of >100)” and less than 1000 nM. For `O=C(Nc1cccnc1)c1cccc(CNS(=O)(=O)c2ccccc2)c1` [Example 92, 3-[(Phenylsulfonamido)methyl]-N-(3-pyridinyl)benzamide], the IC50 in the test on RCC4 is more than 20000 nM. On to `O=C(Nc1cccnc1)c1ccc(CNS(=O)(=O)c2ccc(OC(F)(F)F)cc2)cc1` [Example 46, N-(Pyridin-3-yl)-4-((4-(trifluoromethoxy)phenylsulfonamido)methyl)benzamide], for which, in the test with RCC4/VHL, the “Ratio (RCC4:RCC/VHL)” value was “b (“b” reflects from 10 to 100)”. Moreover, the concentration for half-maximal inhibition (IC50) in the test with RCC4 was in the range of 1000 to 20000 nM.

On to `N#Cc1ccccc1S(=O)(=O)NCc1ccc(C(=O)Nc2cccnc2)cc1` [Example 16, 4-((2-Cyanophenylsulfonamido)methyl)-N-(pyridin-3-yl)benzamide], for which the “Ratio (RCC4:RCC/VHL)” value with RCC4/VHL is on record as “a (“a” reflects a ratio of RCC4/RCC-VHL+ ranging from 1 to 10)”. The compound also returned a 50% inhibitory concentration (IC50) with RCC4 of more than 20000 nM. For the compound `Cc1ccc(S(=O)(=O)NCc2ccc(C(=O)Nc3cccnc3)cc2)cc1Cl` [Example 69, 4-((3-Chloro-4-methylphenylsulfonamido)methyl)-N-(pyridin-3-yl)benzamide], the “Ratio (RCC4:RCC/VHL)” value in the test on RCC4/VHL is listed as “b (“b” reflects from 10 to 100)”. This compound also yielded an IC50 in the test on RCC4 of less than 1000 nM. In the same order, the values of `Cc1ccc(S(=O)(=O)NCc2ccc(C(=O)Nc3cccnc3)cc2)c(C)c1` [Example 64, 4-((2,4-Dimethylphenylsulfonamido)methyl)-N-(pyridin-3-yl)benzamide] are “a (“a” reflects a ratio of RCC4/RCC-VHL+ ranging from 1 to 10)” and 1000 to 20000 nM.

The compound `NCCOCCOCCOCCOCCOCCOCC#Cc1ccc(S(=O)(=O)NCc2ccc(C(=O)Nc3ccncc3)cc2)cc1` [Example 105, 4-[({[4-(21-Amino-4,7,10,13,16,19-hexaoxahenicos-1-yn-1-yl)phenyl]sulfonyl}amino)methyl]-N-(4-pyridinyl)benzamide] registered an IC50 in the test with RCC4 of more than 20000 nM. On to `CC(C)(C)c1ccc(COC(=O)NCc2ccc(C(=O)Nc3cccnc3)cc2)cc1` [Compound D, reference compound], for which, in the test with RCC4, the 50% inhibitory concentration (IC50) was more than 20000 nM. Still for that read-out and setting: next, `Cc1cc(C)cc(CNCc2ccc(C(=O)Nc3cccnc3)cc2)c1` [Compound C, reference compound]: more than 20000 nM; `O=C(Nc1ccncc1)c1ccc(CNS(=O)(=O)c2ccc(Br)cc2)cc1` [Example 96, 4-[(4-Bromophenylsulfonamido)methyl]-N-(4-pyridinyl)benzamide]: more than 20000 nM; `CC(C)(C)c1ccc(S(=O)(=O)NCc2cccc(C(=O)Nc3cccnc3)c2)cc1` [Example 91, 3-[(4-tert-Butylphenylsulfonamido)methyl]-N-(3-pyridinyl)benzamide]: more than 20000 nM. Same read-out and setting: with `O=C(Nc1ccncc1)c1ccc(CNS(=O)(=O)c2ccccc2)cc1` [Example 3, 4-(Phenylsulfonamidomethyl)-N-(pyridin-4-yl)benzamide] the figure was more than 20000 nM. In turn, `O=C(Nc1ccncc1)c1ccc(CNS(=O)(=O)c2ccc(F)cc2)cc1` [Example 97, 4-[(4-Fluorophenylsulfonamido)methyl]-N-(4-pyridinyl)benzamide] came in with a half-maximal inhibitory concentration (IC50) with RCC4 of more than 20000 nM. Still for that read-out and setting: with `CC(C)(C)c1ccc(C(=O)NCc2ccc(C(=O)Nc3cccnc3)cc2)cc1` [Example 86, 4-tert-Butyl-N-(4-(pyridin-3-ylcarbamoyl)benzyl)benzamide] the figure was more than 20000 nM.
